Earlier results, collected in patent publication US12648912B2 (Mylan Laboratories Limited, priority 2020, dated 2026).

Key:
[1] = not given; remark: listed apart in the source

Cc1cnc(NC(=O)C2=C(O)c3ccccc3S(=O)(=O)N2C)s1 [Meloxicam, 4-hydroxy-2-methyl-N-(5-methyl-2-thiazolyl)-2H-1,2-benzothiazine-3-carboxamide-1,1-dioxide]
Tmax in fasted state relative to after breakfast (15 mg tablets, fasted state): doubled | Tmax (time to reach maximum concentration) (orally delivered, humans): 4 to 6 h | second meloxicam concentration peak, time post-dose (post-dose, suggested gastrointestinal recirculation): 12 to 14 h | solubility in methanol ([1]; methanol): very slightly soluble | solubility in water ([1]; water): practically insoluble
